In publication PMC6105642, “A platform for discovery of functional cell-penetrating peptides for efficient multi-cargo intracellular delivery” (Scientific Reports, 2018):
Square brackets hold non-standard residues; d marks the D form. Peptide text beside a SMILES is read from it.

Legend:
[1] = test system: T47D cells; experiment: ^DPMIα delivery cell viability assay; type: cell-based, human; settings: 48 h incubation; presence of sera; resazurin reduction potential
Description: A variety of cell types and cargos confirmed the potency and versatility of Phylomer CPP delivery. Different functional assays applied readouts designed to directly quantify delivery of an established biologic cargo. […] CPP_^DPMIα synthetic peptides (Supplementary Table 7 and Fig. 3a, cargo 2) reduced viability of human breast tumor cells (T47D) in the presence of sera, indicating the successful delivery of ^DPMIα into the cells (Fig. 5a).
All cell viability studies were performed in the presence of FCS. Cells were seeded at 2.5–5 × 10^3 cells/well, depending on cell line, in 96-well plates (PAP assays: CHO-K1 at 3 × 10^3 cells/well; peptide cytotoxicity assays: CHO-K1 at 5 × 10^3 cells/well; Bouganin assay: CHO-K1 and CHO-K1/EGFR at 2.5 × 10^3 cells/well; ^DPMIα assays: T47D at 5 × 10^3 cells/well; Omomyc assays: all cell lines at 5 × 10^3 cells/well). In brief, adherent cells were allowed to adhere for 24 h prior to the addition of treatments whereas suspension cell lines were treated immediately following seeding. […] Membrane integrity was assessed by the release of LDH into the media via the CytoTox-ONE reagent (Promega). Metabolic activity was measured either by resazurin reduction potential using PrestoBlue (Life Technologies) or by ATP activity using CellTitre-Glo (Promega). […] IC50 values were calculated using Prism (version 7.0a, GraphPad).

[2] = test system: HL-60 (promyelocytic leukemia); experiment: Omomyc cell viability assay (ATP activity); type: cell-based; settings: 48 h
From the text: (§1) Next 1746c27 was used to deliver the Omomyc[45],[46] protein cargo. This well-characterized dominant-negative protein directly binds and inhibits the transcription factor MYC. A master regulator of critical cellular processes, MYC is an intracellular oncoprotein target deemed “undruggable” using conventional biological therapeutics. Treatment with recombinant 1746c27_Omomyc (Fig. 3a, cargo 4) induced a dose-dependent decrease in cell viability in MYC-dependent blood cancer cell lines and T47D cells in the presence of sera. […] The potency of 1746c27_Omomyc was greater than small molecule inhibitors of MYC, 10058-F4 and KJ-Pyr9 (Supplementary Fig. 8).
(§2) All cell viability studies were performed in the presence of FCS. […] Membrane integrity was assessed by the release of LDH into the media via the CytoTox-ONE reagent (Promega). Metabolic activity was measured either by resazurin reduction potential using PrestoBlue (Life Technologies) or by ATP activity using CellTitre-Glo (Promega). […] IC50 values were calculated using Prism (version 7.0a, GraphPad).

[3] = test system: AMO-1 (plasmacytoma); experiment: Omomyc cell viability assay (ATP activity); type: cell-based; settings: 48 h
From the text: as §1, §2

[4] = test system: T47D (breast cancer); experiment: Omomyc cell viability assay (ATP activity); type: cell-based, human; settings: 48 h
From the text: as §1, §2

[5] = test system: CHO-K1 cells; experiment: Peptide cytotoxicity, cell viability by resazurin reduction; type: cell-based; settings: CPP alone up to 50 µM, 24 h and 48 h, presence of sera
Description: To ensure that 1746 and 1746c27 are not innately cytotoxic, we assessed their effect on cell viability. CHO-K1 cells were treated with CPPs in the presence of sera at 24 h (Fig. 4a) and 48 h (Fig. 4b). The effects of CPPs on cellular membrane stability were assessed using a LDH enzymatic assay, measuring LDH release at 2 h (Fig. 4c) and 24 h (Fig. 4d) after peptide addition.
All cell viability studies were performed in the presence of FCS. Cells were seeded at 2.5–5 × 10^3 cells/well, depending on cell line, in 96-well plates (PAP assays: CHO-K1 at 3 × 10^3 cells/well; peptide cytotoxicity assays: CHO-K1 at 5 × 10^3 cells/well; Bouganin assay: CHO-K1 and CHO-K1/EGFR at 2.5 × 10^3 cells/well; ^DPMIα assays: T47D at 5 × 10^3 cells/well; Omomyc assays: all cell lines at 5 × 10^3 cells/well). In brief, adherent cells were allowed to adhere for 24 h prior to the addition of treatments whereas suspension cell lines were treated immediately following seeding. Following 2–48 h incubations with treatments, cell viability was measure by a variety of methods. Membrane integrity was assessed by the release of LDH into the media via the CytoTox-ONE reagent (Promega). Metabolic activity was measured either by resazurin reduction potential using PrestoBlue (Life Technologies) or by ATP activity using CellTitre-Glo (Promega). […] IC50 values were calculated using Prism (version 7.0a, GraphPad).

[6] = test system: C57BL/6J mice; experiment: Serum parameters of kidney and liver toxicity in mice; type: in vivo, mouse; settings: 40 mg/kg/day IP for 7 days, n = 6
Description: To examine 1746c27 toxicity in vivo, a cohort of adult male C57BL/6J mice (n = 6) were treated with the CPP. Following approved standard preliminary toxicity testing guidelines (Food and Drug Administration, FDA, and European Medicines Agency, EMA), mice were injected intraperitoneally daily for 7 days with 40 mg/kg of 1746c27. After a further 8 days the mice were culled (on day 15) and serum was extracted and used to examine kidney and liver toxicity. Urea, creatinine, aspartate transaminase (AST) and alanine transaminase (ALT) concentrations were measured. […] ALT (p = 0.054) and creatinine (p = 0.01) levels were lower compared to untreated control mice, which supports the finding of minimal toxicity.
All mouse studies were approved by the Animal Ethics Committee of The University of Western Australia in accordance with the Australian Code of Practice for the Care and Use of Animals for Scientific Purposes (NH&MRC, 8th Edition, 2013). Studies were performed using adult male C57BL/6J mice weighing approximately 20 g. Mice were treated with 1746c27 (40 mg/kg/day intraperitoneally) for 7 days (day 1–7), followed by no treatment on days 8–15. On day 15, mice were anesthetized with intraperitoneal injection of pentobarbitone sodium (240 mg/kg), and their terminal blood collected. Serum was extracted and used to measure kidney and liver toxicity. Urea and creatinine concentration was assessed using QuantiChrom Urea and Creatinine assay kits, respectively (BioAssay Systems). Aspartate transaminase (AST) and alanine transaminase (ALT) concentration were measured using EnzyChrom Aspartate Transaminase and Alanine Transaminase assay kits, respectively (BioAssay Systems). All assays were performed as per manufacturer’s instructions, using a spectrophotometer (PowerWave XS).

[7] = test system: C57BL/10ScSn^mdx mice; experiment: Exon skipping in vivo by RT-PCR and Western blot; parameters: species or system mouse; settings: five IP injections over two weeks, 4 nmoles per dose; RT-PCR / immunoblot; diaphragm, tibialis anterior, heart
Description: Exon skipping in vivo was evaluated at the (a, c) RNA and (b) protein level in the Duchenne muscular dystrophy mouse disease model. RNA was extracted from tissues of C57BL/10ScSn^mdx mice treated with five intra-peritoneal injections of CPP_PMO cargo over two weeks at 4 nmoles per dose (injected volume increased with increased weight of the mice). Pip6, a traditional carrier CPP for peptide-oligonucleotide conjugates in the mdx disease model of DMD^9, was tested in vivo in parallel for comparison. All samples were loaded onto the gel using normalization by myosin densitometry, to enable a quantitative comparison.^10
Tissues were sectioned (6 µm thickness) before adding lysis buffer. Otherwise exon skipping assays and RT-PCR detection were performed following the same protocols used for detection of exon skipping in vitro in myoblasts cells (see Methods of main text).
Samples were vortexed for 10 sec, sonicated at a setting of 30/100 (Sonics sonicator) for 6 x 1 sec pulses, heated at 95 °C for 5 min and centrifuged at 14,000rpm on a Beckman microfuge for 4 min before loading. Total protein was quantitated by BCA assay (Pierce). Average total protein concentration was 2.3 µg/µl. […] Coomassie stained bands were analysed using Bio1D software and the results were used as a loading control to provide equal loading for the western gel that followed. […]

Compound: CC(=O)NCC(=O)N[C@@H](CCCNC(=N)N)C(=O)N[C@@H](CCCCN)C(=O)N[C@@H](CCCCN)C(=O)N[C@@H](CCCNC(=N)N)C(=O)N[C@@H](CCCNC(=N)N)C(=O)N[C@@H](CCC(N)=O)C(=O)N[C@@H](CCCNC(=N)N)C(=O)N[C@@H](CCCNC(=N)N)C(=O)N[C@@H](CCCNC(=N)N)C(=O)NCC(=O)N[C@@H](C)C(=O)N[C@@H](CO)C(=O)N[C@@H](C(=O)N[C@H](CC(N)=O)C(=O)N[C@H](Cc1c[nH]c2ccccc12)C(=O)N[C@H](Cc1ccc(O)cc1)C(=O)N[C@H](C)C(=O)N[C@H](CC(N)=O)C(=O)N[C@H](CC(C)C)C(=O)N[C@H](CCC(=O)O)C(=O)N[C@H](CCCCN)C(=O)N[C@H](CC(C)C)C(=O)N[C@H](CC(C)C)C(=O)N[C@H](CCCNC(=N)N)C(N)=O)[C@H](C)O [TAT_^DPMIα, reference compound] (Ac-GRKKRRQRRRGAS[dT][dN][dW][dY][dA][dN][dL][dE][dK][dL][dL][dR]-NH2)
- IC50 [1]: 36.6 µM

Compound: Ac-KKKKQPPKPKKPKTQEKKKKQPPKPKR-NH2 (N-terminus and C-terminus assumed) [1746c27]
- effect on cell viability, in words [2]: no notable effect on cell viability
- effect on cell viability, in words [3]: no notable effect on cell viability
- effect on cell viability, in words [4]: no notable effect on cell viability
- cytotoxic activity, cell viability [5]: no measurable cytotoxicity
- toxicity in vivo, in words [6]: minimal evidence of toxicity
- ALT Mean ([6]; serum day 15): 59.73 U/L
- AST Mean ([6]; serum day 15): 84.98 U/L
- Creatinine Mean ([6]; serum day 15): 0.33 mg/dL
- Urea Mean ([6]; serum day 15): 50.99 mg/dL
- exon 23 skipping in tissues, in words [7]: not detected

Compound: Ac-PLKPKKPKTQEKKKKQPPKPKKPKTQEKKKKQPPKPKRGAS[dT][dN][dW][dY][dA][dN][dL][dE][dK][dL][dL][dR]-NH2 [1746_^DPMIα]
- IC50 [1]: 9.1 µM
